# Test results reported in ChEMBL document CHEMBL5257046, “Characterization of Serrulatane Diterpenoids in Eremophila phyllopoda subsp. phyllopoda by Triple High-Resolution α-Glucosidase/PTP1B/Radical Scavenging Profiling, NMR Spectroscopy, DFT-GIAO NMR, and Electronic Circular Dichroism Calculations” (J Nat Prod, 2023).
# Target: Alpha glucosidase (Homo sapiens, UniProt O43451+P10253+P14410+Q2M2H8)
# Assay: Inhibition of alpha-glucosidase (unknown origin) using p-nitrophenyl-glycoside as substrate preincubated for 10 mins followed by substrate addition by microplate reader analysis
# Format: protein assay
row,IC50 [µM],SMILES
1,28.4,CC(C)=CCC[C@H](CO)[C@@H]1CC[C@@H](CO)c2c(O)cc(C)cc21
2,64.2,CC(C)=CCC[C@H](C)[C@@H]1CC[C@@H](CO)c2c(O)cc(C)cc21

# Target: T1, Tyrosine-protein phosphatase non-receptor type 1 (Homo sapiens, UniProt P18031)
# T1 sequence (P18031 whole entry): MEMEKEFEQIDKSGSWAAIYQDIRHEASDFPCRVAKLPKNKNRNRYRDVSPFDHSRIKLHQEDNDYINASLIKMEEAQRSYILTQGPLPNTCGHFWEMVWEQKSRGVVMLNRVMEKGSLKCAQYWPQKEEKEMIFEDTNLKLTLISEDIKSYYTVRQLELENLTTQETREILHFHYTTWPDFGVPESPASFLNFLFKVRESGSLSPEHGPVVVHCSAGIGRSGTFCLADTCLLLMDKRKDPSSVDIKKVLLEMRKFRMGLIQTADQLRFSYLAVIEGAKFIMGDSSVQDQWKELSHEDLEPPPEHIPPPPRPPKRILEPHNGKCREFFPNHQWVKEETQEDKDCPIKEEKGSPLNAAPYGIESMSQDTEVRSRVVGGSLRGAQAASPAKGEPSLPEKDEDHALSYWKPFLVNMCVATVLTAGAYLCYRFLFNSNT
# Assay: Inhibition of PTP1B (unknown origin) using pNPP as substrate preincubated for 10 mins followed by substrate addition and measured every 30 sec for 10 mins by microplate photometer analysis
row,SMILES,IC50 [µM]
1,CC(C)=CCC[C@H](C)[C@@H]1C[C@H](O)[C@@H](C)c2c(O)cc(C)cc21,80
2,CC(C)=CCC[C@H](C)[C@H]1c2cc(C)cc(O)c2[C@H](C)C[C@H]1O,105

# Other lines, results leading:
row,IC50 [µM],SMILES
1,20,CC(C)=CCC[C@H](C)[C@@H]1CC[C@@H](CO)c2c(O)cc(C)cc21
2,16.6,CC(C)=CCC[C@H](C)c1cccc2c(O)cc(C)cc12
3,14.4,CCCCCCCCCCCCCCCC(=O)C1=C(O)C(CO)OC1=O (configuration not stated)
